Data taken from patent publication US20240261297A1, “ANTI-CDK INHIBITORS FOR CANCER TREATMENT” (St. John's Cancer Institute, priority 2021, published 2024).
Where two headings read alike, the source gives them in different places.

How the values were obtained:
PLC/PRF/5 cells = experiment: Cell viability of HCC cells by CellTiter Glo assay; assay type: cell-based; details: Homo sapiens, 72 hours
Procedure: FIG. 5 is a graph showing cell viability of hepatocellular carcinoma (HCC) cell lines treated with I-3 for 72 hours, assessed by CellTiter Glo assay, with the control level of cells considered 100%.
I-3 was also tested for efficacy on hepatocellular carcinoma (HCC) cell lines. Cell viability was measured by CellTiter Glo assay (FIG. 5 and Table 8).

[1] = tested on: pCDK2 and phospho-RB in MDA-MB-468 cells; experiment: Western blot of pCDK2 and phospho-Rb in MDA-MB-468 cells; assay type: cell-based; details: increasing amounts
Procedure: FIGS. 3A-3B show target protein inhibition in Basal like TNBC cells. FIG. 3A is a Western blot showing pCDK2 levels in MDA-MB-468 cells with increasing dose of I-3 (CD11). FIG. 3B is a Western blot showing Phospho-Rb levels in MDA-MB-468 cells with increasing dose of I-3 (CD11).
Compound 1-3 efficacy was assessed in several in vitro assays. A nanoBrET assay was used to measure intracellular kinase activity of I-3 with CDK2, CDK1, CDK7 and CDK9. Briefly, HEK293 cells were transfected with CDK2, CDK1, CDK7 and CDK9. The transfected cells were treated in duplicate with test compound I-3 (starting at 10 μM, 10-dose with 3-fold dilution) and target engagement was measured by NanoBRET assay (FIG. 2A and Table 4). Cellular thermal shift assay (CETSA) was also performed to evaluate drug target interaction in the cells. The CETSA method is built upon two concepts: cellular thermal shift and isothermal dose-response. The cellular thermal shift assay is based on the established fact that proteins that are complexed to a ligand become more resistant to heat induced unfolding. Isothermal dose response is used to determine a compound's potency in binding the target by measuring the thermal stability of the target treated with various concentrations of compound at a fixed temperature. […]

MDA-MB-468 = experiment: Cell viability in breast cancer cell lines; assay type: cell-based; details: Homo sapiens
Description: (§1) Tables 5 and 6 show assessment of in vitro efficacy of I-3 in a panel of breast cancer cell lines.

T47D = experiment: Cell viability in breast cancer cell lines; assay type: cell-based; details: Homo sapiens; T47D (Ductal carcinoma), 72 hours; read-out: CTG and Alamar Blue Assay IC50
Description: as §1

[2] = Snapshot plasma pharmacokinetics in mice; assay type: in vivo; details: mouse, in vivo; for AUC(0-inf): AUCinf
Procedure: Evaluation of pharmacokinetic (PK) parameters and efficacy of I-3 in a xenograft model was carried out in mice. […] Briefly, mice were treated with 5 mg/kg of 1-3 or merioline-3. Plasma was then collected at different time points and measured for drug concentration. […] PK parameters of I-3 was also compared to a panel of CDK inhibitors (Table 13). […] Likewise, Ribociclib has a better Cmax than I-3, but it is primarily a CDK4/6 inhibitor.

[3] = tested on: MDA-MB-231 breast cancer xenograft; experiment: Anti-tumor efficacy in MDA-MB-231 breast cancer xenograft model; assay type: in vivo, mice; details: p<0.0001
Procedure: Anti-tumor efficacy of I-3 was evaluated in a MDA-MB-231 breast cancer xenograft model. Briefly, mice with MDA-MB-231 tumors were randomized to three treatment groups: control (Vehicle, n=8), 1-3 IV (10 mg/kg, n=8) and 1-3 PO (10 mg/kg, n=8) on a schedule of 14 days for daily (PO) or twice weekly (IV). Oral gavage treatments were formulated in 0.1% Tween 80 and 99.9% of 0.5% (w/v) of methyl cellulose in water. Intravenous treatments were formulated in 5% (v/v) DMSO, 2.5% (v/v) absolute ethanol, 2.5% (v/v) Solutol, and 90% Normal saline. Tumor growth was measured twice weekly by using a digital vernier caliper and high resolution images of tumor bearing mice were captured using a digital camera at weekly intervals of the study (Days 0, 7 and 14). Tumor volume was calculated as follows:
Tumor Volume=[Length(L)×Width(W)^2]/2
where length (L) is the largest diameter of the tumor and width (W) is the smallest diameter of the tumor.

CDK2/cyclin E = CDK2/cyclin E (Homo sapiens, UniProt P24941); experiment: Radioisotope-based protein kinase assay; assay type: biochemical; details: 10 μM ATP, 3-fold dilution from 10 μM
Procedure: (§2) A series of test compounds were selected for initial screening against CDK isoforms. Protein kinase assays were performed with gold standard radioisotope-based assay formats to measuring enzyme activity remaining in presence and absence of inhibitor.

CDK4/cyclin D1 = CDK4/cyclin D1 (Homo sapiens, UniProt P11802); experiment: Radioisotope-based protein kinase assay; assay type: biochemical; details: 10 μM ATP, 3-fold dilution from 10 μM
Procedure: as §2

CDK1/cyclin B = CDK1/cyclin B (Homo sapiens, UniProt P06493); experiment: Radioisotope-based protein kinase assay; assay type: biochemical; details: 10 μM ATP, 3-fold dilution from 10 μM
Procedure: as §2

CDK9/cyclin T1 = CDK9/cyclin T1 (Homo sapiens, UniProt P50750); experiment: Radioisotope-based protein kinase assay; assay type: biochemical; details: 10 μM ATP, 3-fold dilution from 10 μM
Procedure: as §2

CDK6/cyclin D1 = CDK6/cyclin D1 (Homo sapiens, UniProt Q00534); experiment: Radioisotope-based protein kinase assay; assay type: biochemical; details: 10 μM ATP, 3-fold dilution from 10 μM
Procedure: as §2

CDK5/p25 = CDK5/p25 (Homo sapiens, UniProt Q00535); experiment: Radioisotope-based protein kinase assay; assay type: biochemical; details: Table 1; 10 μM ATP
Procedure: as §2

CDK2/cyclin A = CDK2/cyclin A (Homo sapiens, UniProt P24941); experiment: Radioisotope-based protein kinase assay; assay type: biochemical; details: 10 μM ATP, 3-fold dilution from 10 μM
Procedure: as §2

CDK7/cyclin H = CDK7/cyclin H (Homo sapiens, UniProt P50613); experiment: Radioisotope-based protein kinase assay; assay type: biochemical; details: 10 μM ATP, 3-fold dilution from 10 μM
Procedure: as §2

CDK1/cyclin A = CDK1/cyclin A (Homo sapiens, UniProt P06493); experiment: Radioisotope-based protein kinase assay; assay type: biochemical; details: 10 μM ATP, 3-fold dilution from 10 μM
Procedure: as §2

CDK7/cyclin H, sequence (P50613 whole entry): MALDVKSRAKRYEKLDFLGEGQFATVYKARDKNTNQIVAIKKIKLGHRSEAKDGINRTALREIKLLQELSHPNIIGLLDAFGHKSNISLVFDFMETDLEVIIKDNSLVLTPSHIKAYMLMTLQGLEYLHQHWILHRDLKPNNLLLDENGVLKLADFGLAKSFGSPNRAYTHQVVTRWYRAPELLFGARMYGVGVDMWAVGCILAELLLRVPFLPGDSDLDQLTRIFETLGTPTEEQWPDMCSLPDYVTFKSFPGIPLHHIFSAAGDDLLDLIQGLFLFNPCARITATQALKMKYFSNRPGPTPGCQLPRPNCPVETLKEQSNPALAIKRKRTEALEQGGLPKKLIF
CDK7/cyclin H, sequence (P51946 whole entry partner): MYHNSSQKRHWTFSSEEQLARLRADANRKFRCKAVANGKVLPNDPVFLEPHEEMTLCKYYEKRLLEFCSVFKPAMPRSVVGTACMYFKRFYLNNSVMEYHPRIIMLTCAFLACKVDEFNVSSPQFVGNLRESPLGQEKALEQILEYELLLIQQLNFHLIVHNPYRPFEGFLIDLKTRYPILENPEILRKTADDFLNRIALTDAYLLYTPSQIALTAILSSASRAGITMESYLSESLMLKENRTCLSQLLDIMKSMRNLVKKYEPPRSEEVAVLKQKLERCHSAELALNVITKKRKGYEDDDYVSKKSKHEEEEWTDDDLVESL
CDK7/cyclin H, sequence (P51948 whole entry partner): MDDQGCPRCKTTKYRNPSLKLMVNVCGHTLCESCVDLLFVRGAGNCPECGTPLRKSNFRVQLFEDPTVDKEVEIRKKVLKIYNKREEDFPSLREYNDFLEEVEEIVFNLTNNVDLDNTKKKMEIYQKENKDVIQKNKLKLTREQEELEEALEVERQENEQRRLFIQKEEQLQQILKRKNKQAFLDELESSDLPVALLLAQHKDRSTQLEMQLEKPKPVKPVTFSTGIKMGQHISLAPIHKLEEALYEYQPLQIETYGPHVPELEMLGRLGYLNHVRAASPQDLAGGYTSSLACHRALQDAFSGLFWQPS
CDK1/cyclin B, sequence (P06493 whole entry): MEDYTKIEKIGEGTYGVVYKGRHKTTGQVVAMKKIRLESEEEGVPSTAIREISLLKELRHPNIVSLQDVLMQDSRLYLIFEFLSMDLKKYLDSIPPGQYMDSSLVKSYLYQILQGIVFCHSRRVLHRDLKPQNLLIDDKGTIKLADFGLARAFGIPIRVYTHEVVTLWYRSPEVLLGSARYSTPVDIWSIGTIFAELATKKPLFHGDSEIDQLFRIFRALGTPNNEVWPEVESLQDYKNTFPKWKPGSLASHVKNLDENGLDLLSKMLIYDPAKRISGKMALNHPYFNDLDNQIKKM
CDK1/cyclin B, sequence (P14635 whole entry partner): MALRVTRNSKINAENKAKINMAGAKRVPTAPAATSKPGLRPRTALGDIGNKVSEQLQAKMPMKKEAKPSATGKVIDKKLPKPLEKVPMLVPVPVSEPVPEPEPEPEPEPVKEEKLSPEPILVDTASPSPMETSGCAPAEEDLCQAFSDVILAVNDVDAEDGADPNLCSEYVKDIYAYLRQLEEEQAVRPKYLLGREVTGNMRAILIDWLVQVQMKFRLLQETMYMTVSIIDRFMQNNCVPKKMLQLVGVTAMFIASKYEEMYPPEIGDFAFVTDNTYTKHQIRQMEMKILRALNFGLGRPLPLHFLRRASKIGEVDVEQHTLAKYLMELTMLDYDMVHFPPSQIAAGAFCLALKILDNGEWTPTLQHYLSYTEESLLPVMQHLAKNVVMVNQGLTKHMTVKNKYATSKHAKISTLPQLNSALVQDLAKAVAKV
CDK6/cyclin D1, sequence (Q00534 whole entry): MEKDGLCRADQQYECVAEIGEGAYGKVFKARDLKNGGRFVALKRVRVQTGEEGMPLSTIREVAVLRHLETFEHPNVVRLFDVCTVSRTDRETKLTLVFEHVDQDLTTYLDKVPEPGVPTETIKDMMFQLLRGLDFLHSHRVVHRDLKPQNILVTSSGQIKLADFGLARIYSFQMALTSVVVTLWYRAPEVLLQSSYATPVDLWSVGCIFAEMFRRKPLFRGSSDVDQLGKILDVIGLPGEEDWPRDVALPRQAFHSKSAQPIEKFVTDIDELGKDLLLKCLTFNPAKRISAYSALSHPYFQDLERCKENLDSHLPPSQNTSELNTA
CDK6/cyclin D1, sequence (P24385 whole entry partner): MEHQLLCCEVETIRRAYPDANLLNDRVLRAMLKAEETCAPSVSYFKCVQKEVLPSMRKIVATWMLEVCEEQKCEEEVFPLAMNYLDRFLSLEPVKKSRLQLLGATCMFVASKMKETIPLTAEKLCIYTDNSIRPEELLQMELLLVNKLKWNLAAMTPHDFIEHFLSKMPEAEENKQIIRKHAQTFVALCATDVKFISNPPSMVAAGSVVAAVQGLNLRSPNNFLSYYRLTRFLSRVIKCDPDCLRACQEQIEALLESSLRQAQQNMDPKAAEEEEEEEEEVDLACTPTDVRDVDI
CDK4/cyclin D1, sequence (P11802 whole entry): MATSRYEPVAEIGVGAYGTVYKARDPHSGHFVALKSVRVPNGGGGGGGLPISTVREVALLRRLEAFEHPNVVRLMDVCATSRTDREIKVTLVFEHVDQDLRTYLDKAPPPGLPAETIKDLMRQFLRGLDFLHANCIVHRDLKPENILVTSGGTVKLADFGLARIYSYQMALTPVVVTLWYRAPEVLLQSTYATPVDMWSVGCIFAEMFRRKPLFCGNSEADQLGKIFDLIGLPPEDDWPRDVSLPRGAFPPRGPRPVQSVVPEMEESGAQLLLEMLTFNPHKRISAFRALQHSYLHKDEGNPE
CDK4/cyclin D1, sequence (P24385 whole entry partner): as the sequence (P24385 whole entry partner) above
CDK5/p25, sequence (Q00535 whole entry): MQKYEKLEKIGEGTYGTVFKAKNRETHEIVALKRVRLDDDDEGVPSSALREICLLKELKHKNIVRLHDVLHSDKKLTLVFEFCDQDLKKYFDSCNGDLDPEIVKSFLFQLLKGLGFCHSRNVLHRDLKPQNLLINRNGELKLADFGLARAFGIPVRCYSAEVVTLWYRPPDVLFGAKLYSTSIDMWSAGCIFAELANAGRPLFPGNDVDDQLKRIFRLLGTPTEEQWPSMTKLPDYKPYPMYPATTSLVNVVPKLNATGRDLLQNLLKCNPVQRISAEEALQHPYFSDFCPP
CDK5/p25, sequence (Q15078 99-307 partner limits assumed): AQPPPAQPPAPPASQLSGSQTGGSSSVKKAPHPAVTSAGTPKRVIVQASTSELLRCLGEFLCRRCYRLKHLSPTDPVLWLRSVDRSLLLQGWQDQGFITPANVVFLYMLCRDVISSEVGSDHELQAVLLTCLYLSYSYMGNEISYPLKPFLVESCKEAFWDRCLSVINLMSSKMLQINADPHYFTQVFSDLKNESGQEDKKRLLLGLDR
CDK9/cyclin T1, sequence (P50750 whole entry): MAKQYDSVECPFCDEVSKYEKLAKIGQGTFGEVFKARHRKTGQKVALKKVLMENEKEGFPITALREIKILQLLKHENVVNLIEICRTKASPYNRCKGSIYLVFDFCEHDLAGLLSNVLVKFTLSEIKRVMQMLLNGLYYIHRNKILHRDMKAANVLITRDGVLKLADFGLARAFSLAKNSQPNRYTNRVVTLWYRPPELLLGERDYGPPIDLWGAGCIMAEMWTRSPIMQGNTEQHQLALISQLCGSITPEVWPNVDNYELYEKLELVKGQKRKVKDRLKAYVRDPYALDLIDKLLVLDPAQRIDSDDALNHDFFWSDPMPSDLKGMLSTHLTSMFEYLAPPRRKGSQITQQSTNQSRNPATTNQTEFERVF
CDK9/cyclin T1, sequence (O60563 whole entry partner): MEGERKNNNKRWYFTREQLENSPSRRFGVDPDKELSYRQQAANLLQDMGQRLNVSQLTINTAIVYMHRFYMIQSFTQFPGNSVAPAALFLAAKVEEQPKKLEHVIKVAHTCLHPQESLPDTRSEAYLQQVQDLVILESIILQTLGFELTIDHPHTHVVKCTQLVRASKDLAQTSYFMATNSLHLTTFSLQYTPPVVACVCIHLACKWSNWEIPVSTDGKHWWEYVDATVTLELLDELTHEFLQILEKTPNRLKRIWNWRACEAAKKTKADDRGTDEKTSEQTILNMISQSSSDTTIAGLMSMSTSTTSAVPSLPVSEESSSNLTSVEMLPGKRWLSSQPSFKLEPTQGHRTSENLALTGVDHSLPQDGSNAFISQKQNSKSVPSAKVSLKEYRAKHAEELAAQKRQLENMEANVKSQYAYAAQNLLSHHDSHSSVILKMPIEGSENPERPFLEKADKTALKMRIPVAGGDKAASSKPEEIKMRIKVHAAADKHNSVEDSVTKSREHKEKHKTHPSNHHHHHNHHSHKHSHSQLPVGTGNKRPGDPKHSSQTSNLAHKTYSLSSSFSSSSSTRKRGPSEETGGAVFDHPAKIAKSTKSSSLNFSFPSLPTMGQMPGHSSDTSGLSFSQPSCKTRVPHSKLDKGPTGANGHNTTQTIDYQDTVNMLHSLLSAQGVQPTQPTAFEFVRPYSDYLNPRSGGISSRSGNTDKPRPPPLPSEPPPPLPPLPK

Question: What does the source list for `Nc1nccc(-c2c[nH]c3nccc(Oc4cccc(F)c4)c23)n1` [I-3, 4-(4-(3-fluorophenoxy)-1H-pyrrolo[2,3-b]pyridin-3-yl)pyrimidin-2-amine]?
Answer: IC50 (PLC/PRF/5 cells): 1520 nM; pCDK2 levels [1]: reduced; phosphor-RB levels [1]: reduced; IC50 (MDA-MB-468; MDA-MB-468 (Basal-like 1), 72 hours, read-out: CTG and Alamar Blue Assay IC50): 276 nM; IC50 (MDA-MB-468; MDA-MB-468, 72 hours, Table 6, read-out: Cell viability by CellTiter Glo IC50): 276 nM; IC50 (T47D): 55500 nM; Tmax [2]: 3.1 h; AUC(0-inf) [2]: 1870 ng·h/mL; Cmax ([2]; Cmax): 483 ng/mL; Tmax ([2]; iv, 5 mg/kg): 0.0833 h; half-life ([2]; iv, 5 mg/kg): 1.15 h; AUC(0-inf) ([2]; iv, 5 mg/kg): 3700 ng·h/mL; Cmax ([2]; iv, 5 mg/kg, Cmax): 5080 ng/mL; Cmax ([2]; po, 5 mg/kg): 178 ng/mL; Tmax ([2]; po, 5 mg/kg): 0.5 h; half-life ([2]; po, 5 mg/kg): 3.1 h; AUC(0-inf) ([2]; po, 5 mg/kg): 1480 ng·h/mL; tumor growth inhibition (TGI) ([3]; IV 10 mg/kg twice weekly, 14 days, vs control): 60%; tumor growth inhibition (TGI) ([3]; PO 10 mg/kg once daily, end of two weeks): 54%; IC50 (CDK2/cyclin E): 4 nM; IC50 (CDK4/cyclin D1): 414 nM; IC50 (CDK1/cyclin B): 8 nM; IC50 (CDK9/cyclin T1): 7 nM; IC50 (CDK6/cyclin D1): 285 nM; IC50 (CDK5/p25): 8 nM; IC50 (CDK2/cyclin A): 4 nM; IC50 (CDK7/cyclin H): 18 nM; IC50 (CDK1/cyclin A): 6 nM
